Data as given in patent US4450269A, “Mono-5-substituted-3-chloro-4H-1,2,6-thiadiazin-4-one antifungal agents” (FMC Corporation, priority 1980, dated 1984).
Where a name gives a salt, the structure may show the parent alone.

Assays:
[1] = test system: Phytophthora infestans; experiment: whole plant or invertebrate; type: in vivo; settings: for Percent Disease Control, foliar, tomato late blight: 150 ppm, protective; for pest or weed control at 150 ppm: Phytophthora infestans, in Solanum lycopersicum, foliar, read-out: Percent Disease Control, foliar, tomato late blight, 150 ppm, protective
[2] = test system: Alternaria solani; experiment: Mycelial growth test; type: cell-based; settings: AS; for Percent Fungus Growth Inhibition: 72 hours; for inhibition at 5 ppm / inhibition at 10 ppm / inhibition at 20 ppm / inhibition at 40 ppm: Alternaria solani, 72 h, read-out: Percent Fungus Growth Inhibition
[3] = test system: Uromyces phaseoli; experiment: whole plant or invertebrate; settings: foliar, 24 h, read-out: Percent Disease Control, curative, bean rust

| Compound | Percent Disease Control, foliar, tomato late blight [1] [%] | Percent Fungus Growth Inhibition ([2]; 5 ppm) [%] | Percent Fungus Growth Inhibition ([2]; 10 ppm) [%] | Percent Fungus Growth Inhibition ([2]; 20 ppm) [%] | Percent Fungus Growth Inhibition ([2]; 40 ppm) [%] | pest or weed control at 150 ppm [3] [%] | pest or weed control at 150 ppm [1] [%] | inhibition at 5 ppm ([2]; 5 ppm) [%] | inhibition at 10 ppm ([2]; 10 ppm) [%] | inhibition at 20 ppm ([2]; 20 ppm) [%] | inhibition at 40 ppm ([2]; 40 ppm) [%] | Percent Disease Control, foliar, tomato late blight ([1]; hydrochloride) [%] | Percent Fungus Growth Inhibition ([2]; 5 ppm, hydrochloride) [%] | Percent Fungus Growth Inhibition ([2]; 10 ppm, hydrochloride) [%] | Percent Fungus Growth Inhibition ([2]; 20 ppm, hydrochloride) [%] | Percent Fungus Growth Inhibition ([2]; 40 ppm, hydrochloride) [%] |
| --- | --- | --- | --- | --- | --- | --- | --- | --- | --- | --- | --- | --- | --- | --- | --- | --- |
| 3-chloro-5-(bromophenoxy)-4H-1,2,6-thiadiazin-4-one [Compound 33] | 0 | 100 | 100 | 100 | 100 |  |  |  |  |  |  |  |  |  |  |  |
| O=c1c(Cl)nsnc1Oc1ccccc1 [Compound 2, 3-chloro-5-phenoxy-4H--1,2,6-thiadiazin-4-one] |  |  |  |  |  | 0 | 0 | 75 | 100 | 100 | 100 |  |  |  |  |  |
| Cc1ccc(Oc2nsnc(Cl)c2=O)cc1 [Compound 3, 3-chloro-5-(4-methylphenoxy)-4H--1,2,6-thiadiazin-4-one] |  |  |  |  |  | 0 | 50 | 19 | 63 | 100 | 100 |  |  |  |  |  |
| CC(C)(C)c1ccc(Oc2nsnc(Cl)c2=O)cc1 [Compound 4, 3-chloro-5-(4-tert-butylphnoxy)-4H--1,2,6-thiadiazin-4-one] |  |  |  |  |  | 75 | 0 | 13 | 13 | 0 | 17 |  |  |  |  |  |
| COc1ccc(Oc2nsnc(Cl)c2=O)cc1 [Compound 5, 3-chloro-5-(4-methoxyphenoxy)4H--1,2,6-thiadiazin-4-one] |  |  |  |  |  | 0 | 0 | 100 | 100 | 100 | 100 |  |  |  |  |  |
| CCCCOc1ccc(Oc2nsnc(Cl)c2=O)cc1 [Compound 6, 3-chloro-5-(4-n-butoxyphenoxy)-4H--1,2,6-thiadiazin-4-one] |  |  |  |  |  | 90 | 0 | 8 | 0 | 13 | 21 |  |  |  |  |  |
| CCOC(=O)c1ccc(Oc2nsnc(Cl)c2=O)cc1 [Compound 7, 3-chloro-5-(4-ethoxycarbonylphenoxy)-4H--1,2,6-thiadiazin-4-one] |  |  |  |  |  | 0 | 100 | 54 | 75 | 75 | 92 |  |  |  |  |  |
| CC(=O)Nc1ccc(Oc2nsnc(Cl)c2=O)cc1 [Compound 8, 5-(4-acetylaminophenoxy)-3-chloro-4H--1,2,6-thiadiazin-4-one] |  |  |  |  |  | 0 | 90 | 38 | 41 | 69 | 86 |  |  |  |  |  |
| O=c1c(Cl)nsnc1Oc1ccc([N+](=O)[O-])cc1 [Compound 9, 3-chloro-5-(4-nitrophenoxy)-4H--1,2,6-thiadiazin-4-one] |  |  |  |  |  | 0 | 90 | 31 | 63 | 100 | 100 |  |  |  |  |  |
| N#Cc1ccc(Oc2nsnc(Cl)c2=O)cc1 [Compound 10, 3-chloro-5-(4-cyanophenoxy)-4H--1,2,6-thiadiazin-4-one] |  |  |  |  |  | 0 | 100 | 54 | 79 | 92 | 92 |  |  |  |  |  |
| O=c1c(Cl)nsnc1Oc1ccc(F)cc1 [Compound 11, 3-chloro-5-(4-fluorophenoxy)-4H--1,2,6-thiadiazin-4-one] |  |  |  |  |  | 0 | 100 | 63 | 83 | 100 | 100 |  |  |  |  |  |
| O=c1c(Cl)nsnc1Oc1ccc(Cl)cc1 [Compound 12, 3-chloro-5-(4-chlorophenoxy)-4H--1,2,6-thiadiazin-4-one] |  |  |  |  |  | 0 | 100 | 31 | 31 | 63 | 100 |  |  |  |  |  |
| Nc1ccc(Oc2nsnc(Cl)c2=O)cc1 [Compound 27, 5-(4-aminophenoxy)-3-chloro-4H--1,2,6-thiadiazine-4-one hydrochloride] |  |  |  |  |  |  |  |  |  |  |  | 98 | 47 | 73 | 80 | 87 |
